Laboratory results published in the Kinase Knowledgebase extract (Sharma et al. 2016).

Target: CDK2 (human) (UniProt P24941)
Test: Enzyme Assay

SMILES	IC50
COc1nc(C)c(-c2ccnc(Nc3ccc(F)c(C)c3)n2)s1	130 nM
COc1nc(C)c(-c2ccnc(Nc3ccc(F)cc3)n2)s1	120 nM
COc1ccc(Nc2nccc(-c3sc(OC)nc3C)n2)cc1	250 nM
COc1nc(C)c(-c2ccnc(Nc3ccc(C)c([N+](=O)[O-])c3)n2)s1	110 nM
COc1nc(C)c(-c2ccnc(Nc3cccc(O)c3)n2)s1	120 nM
COc1nc(C)c(-c2ccnc(Nc3ccc(N(C)C)cc3)n2)s1	750 nM
COc1nc(C)c(-c2ccnc(Nc3ccc(F)c([N+](=O)[O-])c3)n2)s1	120 nM
Cc1nc(N)sc1-c1ccnc(Nc2ccc(C(F)(F)F)cc2)n1	680 nM

Further compounds by falling IC50, results first:

IC50	SMILES
1180 nM	COc1nc(C)c(-c2ccnc(Nc3ccc(Cl)c(C)c3)n2)s1
700 nM	COc1nc(C)c(-c2ccnc(Nc3ccc(C)c(I)c3)n2)s1
470 nM	Cc1nc(C)c(-c2ccnc(Nc3ccc(CCO)cc3)n2)s1
140 nM	COc1ccc(Nc2nccc(-c3sc(C)nc3C)n2)cc1O
110 nM	COc1nc(C)c(-c2ccnc(Nc3ccc(Cl)cc3)n2)s1
60 nM	COc1nc(C)c(-c2ccnc(Nc3cccc([N+](=O)[O-])c3)n2)s1
50 nM	COc1nc(C)c(-c2ccnc(Nc3ccc(O)cc3)n2)s1
